{"source": "patent US20260226047A1", "about": "“BENZIMIDAZOLE AND AZA-BENZIMIDAZOLE BASED IL-17A MODULATORS AND USES THEREOF” (DICE ALPHA, INC., priority 2023, published 2026)"}
{"target": "T1, IL-17A/A (Homo sapiens, UniProt Q16552)", "T1 construct": "purchased Genscript Z03228", "T1 sequence (Q16552 24-155)": "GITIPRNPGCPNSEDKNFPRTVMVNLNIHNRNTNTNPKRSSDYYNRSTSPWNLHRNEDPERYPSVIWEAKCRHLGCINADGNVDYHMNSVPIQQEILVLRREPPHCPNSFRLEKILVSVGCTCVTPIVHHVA", "test": "IL-17A/A HEK-Blue Cell Assay", "type": "cell-based", "settings": "IL-17A/A inhibition, HEK-Blue IL-17A reporter cell line, SEAP readout at A630, incubated for 20 hours", "procedure": "Example 3: IL-17A/A HEK-Blue Cell Assay\nThe HEK-Blue IL-17A reporter cell line (Fisher #NC1408637) was used for cell-based IL-17A/A inhibition assays. Cells were grown and prepared for assays according to the manufacturer's instructions. This cell line consists of HEK 293 cells that were designed to expressed IL-17RA, IL-17RC, and the ActI adapter molecule, the combination of which, when stimulated by IL-17A/A activates a NFκB promoter and drives expression of a recombinant Secreted Alkaline Phosphatase (SEAP) gene protein. Media from the cells is then added to a development reagent (Quanti-Blue Substrate, Fisher #NC9711613), and read at A630.\nCompounds were titrated in DMSO, with a top final compound concentration of 10 μM, 1 uM, or 0.3 μM, and added to the cells immediately before adding IL-17A/A (Genscript #Z03228). The cells, compound, and IL-17A/A were then incubated for 20 hours before media was removed for SEAP analysis. The resulting inhibition curve was then analyzed using Graphpad Prism 7.0, and IC50 values were determined using a 4-parameter nonlinear fit. DMSO was added to a universal final concentration of 0.1% to optimize background.", "units": {"IC50": "nM"}}
{"smiles": "CCn1nccc1C(=O)N[C@H](c1nc2cc(C[C@H]3CCNC3=O)ccc2[nH]1)C(C1CC1)C1CC1", "note": "[Compound 16]", "IC50": "100 to 1000"}
{"smiles": "CCn1nccc1C(=O)N[C@H](c1nc2cc(C[C@H]3C[C@@H](C(F)(F)F)NC3=O)cc(F)c2[nH]1)C(C1CC1)C1CC1", "note": "[Compound 34]", "IC50": "< 100"}
{"smiles": "CCn1nccc1C(=O)N[C@H](c1nc2cc(CC3CCNC3=O)ccc2[nH]1)C(C1CC1)C1CC1", "note": "(stereo partly drawn) [Compound 15]", "IC50": "100 to 1000"}
{"smiles": "CCn1nccc1C(=O)N[C@H](c1nc2ccc(CC3CC(C(F)(F)F)CNC3=O)cc2[nH]1)C(C1CC1)C1CC1", "note": "(stereo partly drawn) [Compound 71]", "IC50": "100 to 1000"}
{"smiles": "CCn1nccc1C(=O)N[C@H](c1nc2cc(CC3CCC(C(F)(F)F)NC3=O)cc(F)c2[nH]1)C(C1CC1)C1CC1", "note": "(stereo partly drawn) [Compound 56]", "IC50": "100 to 1000"}
{"smiles": "CCn1nccc1C(=O)N[C@H](c1nc2ccc(C[C@@H]3CC(F)(F)CNC3=O)cc2[nH]1)C(C1CC1)C1CC1", "note": "[Compound 75]", "IC50": "100 to 1000"}
